Measurements taken from US9926295B2, “Potent and selective inhibitors of hepatitis C virus” (Cocrystal Pharma, Inc., priority 2014, dated 2018).

Columns and labels:
Type in all cases: cell-based
[1] = Cellular toxicity assay in Vero cells; details: African green monkey, read-out: Cytotoxicity (IC50 μM) Vero
Procedure: (§1) The toxicity of the compounds was assessed in Vero, human PBM, CEM (human lymphoblastoid), MT-2, and HepG2 cells, as described previously (see Schinazi R. F., Sommadossi J.-P., Saalmann V., Cannon D. L., Xie M.-Y., Hart G. C., Smith G. A. & Hahn E. F. Antimicrob. Agents Chemother. 1990, 34, 1061-67). Cycloheximide was included as positive cytotoxic control, and untreated cells exposed to solvent were included as negative controls. The cytotoxicity IC50 was obtained from the concentration-response curve using the median effective method described previously (see Chou T.-C. & Talalay P. Adv. Enzyme Regul. 1984, 22, 27-55; Belen'kii M. S. & Schinazi R. F. Antiviral Res. 1994, 25, 1-11).

[2] = Cellular toxicity assay in CEM cells; details: human, CEM (human lymphoblastoid) cells, read-out: Cytotoxicity (IC50 μM) CEM
Procedure: as §1

[3] = test system: HCV Replicon RNA (HCV 1b) in Huh 7 Clone B cells; test: HCV Replicon Assay; details: Hepatitis C virus, 120 h, five days incubation
Procedure: Huh 7 Clone B cells containing HCV Replicon RNA would be seeded in a 96-well plate at 5000 cells/well, and the compounds tested at 10 μM in triplicate immediately after seeding. Following five days incubation (37° C., 5% CO2), total cellular RNA was isolated by using versaGene RNA purification kit from Gentra. Replicon RNA and an internal control (TaqMan rRNA control reagents, Applied Biosystems) were amplified in a single step multiplex Real Time RT-PCR Assay. The antiviral effectiveness of the compounds was calculated by subtracting the threshold RT-PCR cycle of the test compound from the threshold RT-PCR cycle of the no-drug control (ΔCt HCV). A ΔCt of 3.3 equals a 1-log reduction (equal to 90% less starting material) in Replicon RNA levels. The cytotoxicity of the compounds was also calculated by using the ΔCt rRNA values. 2′-C-Me-C was used as the positive control. To determine EC90 and IC50 values^2, ΔCt: values were first converted into fraction of starting material^3 and then were used to calculate the % inhibition.
• 1. Stuyver L et al., Ribonucleoside analogue that blocks replication or bovine viral diarrhea and hepatitis C viruses in culture. Antimicrob. Agents Chemother. 2003, 47, 244-254. • 2. Reed I J & Muench H, A simple method or estimating fifty percent endpoints. Am. J. Hyg. 27: 497, 1938. • 3. Applied Biosystems Handbook Median Effective concentrations (EC50) ranges against HCV 1b are as follow: A=[…] B=100-999 nM C=1-99 nM D=<1 nM

[4] = Cellular toxicity assay in human PBM cells; details: read-out: Cytotoxicity (IC50 μM) PBM
Procedure: as §1

SMILES	IC50 [1]	IC50 [2]	EC50 ([3]; pM)	EC90 ([3]; pM)	IC50 [4]	EC50 ([3]; values in nM)	EC90 ([3]; values in nM)
COC(=O)N[C@H](C(=O)N1CCCC1c1nc(Cl)c(-c2ccc(-c3ccc(-c4[nH]c([C@@H]5C[C@H](SC)CN5C(=O)[C@@H](NC(=O)OC)C(C)C)nc4Cl)cc3)cc2)[nH]1)C(C)C (stereo partly drawn) [Compound 49]	> 100 µM	2.5 µM	3.4 pM	69.9 pM	24.3 µM		
COC(=O)N[C@H](C(=O)N1CCCC1c1nc(Cl)c(-c2ccc(-c3ccc(-c4[nH]c([C@@H]5C[C@H](SC)CN5C(=O)[C@@H](NC(=O)OC)c5ccccc5)nc4Cl)cc3)cc2)[nH]1)c1ccccc1 (stereo partly drawn) [Compound 51]	> 100 µM	> 100 µM	7.7 pM	19.1 pM	> 100 µM		
COC(=O)N[C@H](C(=O)N1CCCC1c1ncc(-c2ccc(-c3ccc(-c4[nH]c([C@@H]5C[C@H]([S+](C)[O-])CN5C(=O)[C@@H](NC(=O)OC)C(C)C)nc4Cl)cc3)cc2)[nH]1)C(C)C (stereo partly drawn) [Compound 46]	45.8 µM	3.7 µM			13.6 µM	60 pM	300 pM
COC(=O)N[C@H](C(=O)N1CCCC1c1ncc(-c2ccc(-c3ccc(-c4[nH]c([C@@H]5C[C@H](SC)CN5C(=O)[C@@H](NC(=O)OC)c5ccccc5)nc4Cl)cc3)cc2)[nH]1)c1ccccc1 (stereo partly drawn) [Compound 47]	> 100 µM	> 100 µM	4 pM	23.1 pM	> 100 µM		
COC(=O)N[C@H](C(=O)N1CCCC1c1ncc(-c2ccc(-c3ccc(-c4[nH]c([C@@H]5C[C@H](SC)CN5C(=O)[C@@H](NC(=O)OC)C(C)C)nc4Cl)cc3)cc2)[nH]1)C(C)C (stereo partly drawn) [Compound 45]	14.4 µM	5.2 µM	16.3 pM	31.6 pM	27.2 µM		
COC(=O)N[C@H](C(=O)N1CCCC1c1nc(Cl)c(-c2ccc(-c3ccc(-c4[nH]c([C@@H]5C[C@H]([S+](C)[O-])CN5C(=O)[C@@H](NC(=O)OC)c5ccccc5)nc4Cl)cc3)cc2)[nH]1)c1ccccc1 (stereo partly drawn) [Compound 52]	> 100 µM	7.1 µM			83.9 µM	60 pM	200 pM
COC(=O)N[C@H](C(=O)N1CCCC1c1nc(Cl)c(-c2ccc(-c3ccc(-c4cnc([C@@H]5C[C@H]([S+](C)[O-])CN5C(=O)[C@@H](NC(=O)OC)c5ccccc5)[nH]4)cc3)cc2)[nH]1)c1ccccc1 (stereo partly drawn) [Compound 44]	> 100 µM	3.6 µM			89.7 µM	200 pM	1100 pM
COC(=O)N[C@H](C(=O)N1CCCC1c1nc(Cl)c(-c2ccc(-c3ccc(-c4cnc([C@@H]5C[C@H](SC)CN5C(=O)[C@@H](NC(=O)OC)C(C)C)[nH]4)cc3)cc2)[nH]1)C(C)C (stereo partly drawn) [Compound 42]	34.5 µM	3.1 µM	13.9 pM	26.3 pM	60 µM		
COC(=O)N[C@H](C(=O)N1CCCC1c1ncc(-c2ccc(-c3ccc(-c4[nH]c([C@@H]5C[C@H]([S+](C)[O-])CN5C(=O)[C@@H](NC(=O)OC)c5ccccc5)nc4Cl)cc3)cc2)[nH]1)c1ccccc1 (stereo partly drawn) [Compound 48]	> 100 µM	1.8 µM			67.6 µM	70 pM	500 pM
